Assay results reported in ChEMBL document CHEMBL1133786, “Synthesis and dopaminergic properties of the two enantiomers of 3-(3,4-dimethylphenyl)-1-propylpiperidine, a potent and selective dopamine D4 receptor ligand” (Bioorg Med Chem Lett, 2001).

Tests used:
[1] = Binding affinity for dopamine D4-like receptor labelled with [3H]YM-09151-2 in retina; assay type: tissue-based, Bos taurus
[2] = Binding affinity for dopamine D2-D3 like receptor labelled with [3H]YM-09151-2 in striatum; assay type: tissue-based, Bos taurus
D(1A) dopamine receptor = D(1A) dopamine receptor (Bos taurus, UniProt Q95136); assay: Binding affinity for dopamine D1-like receptor labelled with [3H]SCH-23390 in retina; assay type: tissue-based
Chain of D(1A) dopamine receptor (Q95136 whole entry): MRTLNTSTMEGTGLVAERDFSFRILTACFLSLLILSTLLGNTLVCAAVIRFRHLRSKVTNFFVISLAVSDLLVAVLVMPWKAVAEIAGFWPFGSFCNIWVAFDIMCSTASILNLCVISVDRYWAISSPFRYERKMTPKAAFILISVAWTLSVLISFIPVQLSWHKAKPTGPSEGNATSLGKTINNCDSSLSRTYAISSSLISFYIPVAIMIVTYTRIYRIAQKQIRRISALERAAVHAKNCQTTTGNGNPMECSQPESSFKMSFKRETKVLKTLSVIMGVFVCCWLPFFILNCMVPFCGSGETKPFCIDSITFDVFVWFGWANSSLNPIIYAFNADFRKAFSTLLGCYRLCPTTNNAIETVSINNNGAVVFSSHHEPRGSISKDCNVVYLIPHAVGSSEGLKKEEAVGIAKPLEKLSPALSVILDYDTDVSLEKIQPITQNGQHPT

SMILES | Ki [1] | Ki [2] | Ki (D(1A) dopamine receptor)
CCCN1CCC[C@@H]2Cc3n[nH]cc3C[C@H]21 [QUINPIROLE] | 0.059 µM | 0.241 µM | 
CCCN1CCC[C@H](c2ccc(C)c(C)c2)C1 | 0.004 µM | > 100 µM | > 100 µM
NCCc1ccc(O)c(O)c1 [DOPAMINE] | 0.015 µM | 0.13 µM | 
CCCN1CCCC(c2ccc(C)c(C)c2)C1 (centres undefined) | 0.01 µM | 11 µM | > 100 µM
Cc1cccc(C(=O)NCN2CCN(c3ccccc3C#N)CC2)c1 [PD-168,077] | 0.025 µM | 18.3 µM | 
CCCN1CCC[C@@H](c2ccc(C)c(C)c2)C1 | 0.023 µM | 5 µM | > 100 µM
CCCN1CCC[C@H](c2cccc(O)c2)C1 | 0.397 µM | 0.404 µM | 
CCCN1CCC[C@@H](c2cccc(O)c2)C1 [PRECLAMOL] | 0.187 µM | 0.008 µM | 
